This passage reports IC50, log k and MIC results from PMC6268061, “Investigation of the Biological Properties of (Hetero)Aromatic Thiosemicarbazones” (Molecules, 2012).

One data set relates to Absidia corymbifera 272. The experiment in a line: In vitro antifungal susceptibility, broth microdilution. The conditions noted are these: read-out: MIC (IC50) AC. The data set is classed as cell-based. (In general: In broth dilution the organism is exposed to a series of concentrations in liquid medium.)
Data set [1] deals with photosynthetic electron transport (PET) in spinach chloroplasts. Kind of data set: Inhibition of photosynthetic electron transport (PET) in spinach chloroplasts. The note with it: DCPIP photoreduction. The data set is classed as biochemical, Spinacia oleracea L. The method in brief: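 PET in spinach chloroplasts was followed spectrophotometrically as DCPIP photoreduction in pH 7.2 phosphate buffer with sucrose, MgCl2 and NaCl, at 30 mg/L chlorophyll, under halogen-lamp irradiation at 22 °C. Compounds were added in DMSO. IC50 is the molar concentration halving the rate relative to untreated control.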

The nature of data set [2]: Lipophilicity determination using RP-HPLC (capacity factor, log k). The note with it: C18, MeOH 55%/H2O 45%. The data set is classed as physicochemical. A digest of the protocol: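 Isocratic RP-HPLC on a C18 column (5 μm, 4.6 × 250 mm), 55% MeOH/45% water at 0.9 mL/min, 30 °C, UV detection 210 nm. Dead time from KI; capacity factor k = (tR − tD)/tD, with log k taken as the lipophilicity index on log P scale.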

The subject of data set [3] is Trichophyton mentagrophytes 445. Kind of data set: In vitro antifungal susceptibility, broth microdilution. Format: cell-based. The note with it: read-out: MIC (IC50) TM.
Data set [4] relates to Candida albicans ATCC 44859. Described as above. Format: cell-based. The note with it: read-out: MIC (IC80) CA.
The test system of the next data set is Candida glabrata 20/I. Described as above. The data set is classed as cell-based. The conditions noted are these: Nakaseomyces glabratus, read-out: MIC (IC80) CG.
For data set [5], the system named is Trichosporon beigelii 1188. The data set is described as above. The data set is classed as cell-based. The note with it: read-out: MIC (IC80) TB. A digest of the protocol:
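Twofold dilutions (500 to 0.975 μmol/L final) in RPMI 1640 with MOPS, pH 7.0, per CLSI broth microdilution. MIC taken as IC80 for yeasts (M27-A2) or IC50 for moulds (M38-A) versus drug-free control, read after 24 and 48 h static incubation at 35 °C.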

Data set [6] deals with Aspergillus fumigatus 231. The description is as above. Format: cell-based. The note with it: read-out: MIC (IC50) AF.
The subject of the next data set is Candida krusei ATCC 6258. The data set is described as above. The note with it: Pichia kudriavzevii, read-out: MIC (IC80) CK. The data set is classed as cell-based.
The test system of the next data set is Candida tropicalis 156. The description is as above. Format: cell-based. The note with it: read-out: MIC (IC80) CT.
Data set [7] deals with HCT-116 human colon cancer cells (p53 wild type). Details: method as in PMID 22858101. The note with it: footnote 3: anticancer activity described elsewhere ref [34],[44]; cited from earlier work.

≈ marks a conversion by molar mass, not a printed value. Read-outs that look alike come from different tables or passages of the source. Bounds are passed on as bounds.

On to `CNC(=S)NN=Cc1ccc2cccc(O)c2n1` [Compound 4e], for which the IC50 is > 125 µM in the data set with Absidia corymbifera 272 (Lichtheimia corymbifera, 272, 24 h and 48 h, only one value presented (inactive)); 302 µM in data set [1]; > 125 µM in [3] (Trichophyton mentagrophytes, 445, 72 h and 120 h, only one value presented (inactive)); > 125 µM in [6] (Aspergillus fumigatus, 231, 24 h and 48 h, only one value presented (inactive)); 1.71 ± 0.34 µM in data set [7]. The molecule further yielded a log k in [2] of 0.6236. The MIC in data set [4] (ATCC44859, 24 h and 48 h, only one value presented (inactive)) was > 125 µM; with Candida glabrata 20/I (24 h and 48 h, only one value presented (inactive)) it was > 125 µM; in data set [5] (Trichosporon beigelii, 1188, 24 h and 48 h, only one value presented (inactive)) it was > 125 µM; with Candida krusei ATCC 6258 (ATCC6258, 24 h and 48 h, only one value presented (inactive)), > 125 µM; in the data set with Candida tropicalis 156 (Candida tropicalis, 156, 24 h and 48 h, only one value presented (inactive)), > 125 µM.

For `CN(C)C(=S)NN=Cc1c(O)ccc2cccnc12` [Compound 4j], the IC50 in the data set on Absidia corymbifera 272 (Lichtheimia corymbifera, 272, 24 h) is > 250 µM; in the data set with Absidia corymbifera 272 (Lichtheimia corymbifera, 272, 48 h) it was > 250 µM; in data set [1] it was 520 µM; in data set [3] (Trichophyton mentagrophytes, 445, 72 h), 125 µM; in data set [3] (Trichophyton mentagrophytes, 445, 120 h), 125 µM; in data set [6] (Aspergillus fumigatus, 231, 24 h), > 250 µM. The IC50 was > 250 µM in data set [6] (Aspergillus fumigatus, 231, 48 h) and 20.8 ± 5.34 µM in data set [7]. The molecule further had a log k in [2] of 0.5831. Besides, the MIC in data set [4] (ATCC44859, 24 h) was 125 µM (≈ 34.3 µg/mL); in [4] (ATCC44859, 48 h) it was > 250 µM; with Candida glabrata 20/I (24 h), 125 µM (≈ 34.3 µg/mL); in the data set on Candida glabrata 20/I (48 h) it was 125 µM (≈ 34.3 µg/mL); in data set [5] (Trichosporon beigelii, 1188, 24 h), 125 µM (≈ 34.3 µg/mL); in [5] (Trichosporon beigelii, 1188, 48 h) it was > 250 µM. The MIC in the data set with Candida krusei ATCC 6258 (ATCC6258, 24 h) is > 250 µM; in the data set on Candida krusei ATCC 6258 (ATCC6258, 48 h), > 250 µM; with Candida tropicalis 156 (Candida tropicalis, 156, 24 h) it was > 250 µM; in the data set on Candida tropicalis 156 (Candida tropicalis, 156, 48 h) it was > 250 µM.

By IC50 is commonly meant the point on the concentration scale where inhibition reaches its midpoint. The term MIC denotes the smallest concentration in the dilution series that meets the test's criterion for growth inhibition.
